The values below come from US12636272B2, “Method and composition for inhibiting virus infection” (ARJIL BIOTECH HOLDING COMPANY LIMITED, priority 2020, dated 2026).

Where “and” joins values, the source holds several entries; their conditions need not be identical. Identical values can stand only once.

One series has as its system SARS-COV-2 (NTU13). Briefly: Plaque reduction assay in Vero E6 cells. It is filed as cell-based. As to conditions: 1 μM RDV*.
The subject of another series is HepG2.2.15 cells. In words: Cell viability of HepG2.2.15 cells. It is filed as cell-based.
Series [1] has as its system HBV. Briefly: HBV DNA level in the culture medium of HepG2.2.15 cells (real-time PCR). It is filed as cell-based, Hepatitis B virus (HBV). The source says: (§1) Continuous HBV proliferation can be achieved in HepG2.2.15 cells (RRID:CVCL_L855) stably transfected with the HBV genome of the adw2 subtype. HepG2.2.15 cells are used because of the unlimited supply and constant quality and were maintained in Dulbecco's modified Eagle medium (DMEM; Invitrogen) supplemented with 10% heat-inactivated fetal bovine serum (FBS; Thermo) plus 100 units of penicillin and […] of streptomycin per ml (both from Invitrogen).
The culture medium from drug-treated HepG2.2.15 cells is clarified by centrifugation at 1,000× g at 4° C. for 10 min, and then the supernatant is layered on top of a 20% sucrose cushion (20% sucrose, 20 mM HEPES, pH 7:4, 0.1% bovine serum albumin [BSA]) and centrifuged at 197,000× g for 3 h at 4° C. to pellet the HBV particles, which are then concentrated 100 fold to detect HBV DNA.
Total DNA is extracted with a Genomic DNA isolation kit (Nexttee Biotechnologie, Germany). Total RNA is isolated from cultured cells using TRIzol® reagent (Invitrogen). […] The results are analyzed with the iCycler iQ real-time PCR detection system (Bio-Rad). […]
(§2) To test whether AR100-DS1 had any effect on HBV genome replication, assembly, or secretion, HepG2.2.15 cells that were stably transfected with HBV genome, were used to incubate with AR 100-DS1 for 48 hours, then HBsAg and HBV DNA collected from medium were measured by ELISA and real-time PCR.
A general note: Real-time PCR tracks product formation cycle by cycle.

Series [2] deals with HBV. In words: HBV infectivity/entry in HuS-E/2 cells (HBsAg ELISA, HBV mRNA real-time PCR). It is filed as cell-based, Hepatitis B virus (HBV). (In general: An ELISA detects its analyte on a solid surface through an enzyme-linked reagent.)
The test system of series [3] is HBV. Briefly: HBsAg secretion of HepG2.2.15 cells (ELISA). It is filed as cell-based, Hepatitis B virus (HBV).
Description: as §1, §2

The subject of a further series is HuS-E/2 cells. Briefly: Cell viability of HuS-E/2 cells (MTT assay). Conditions: 0-1000 μg/ml AR100-DS1 for 48 h. It is filed as cell-based.
[4] abbreviates: HuS-E/2 cells, 0, 5 and 10 of AR100-DS1 during infection for 18 h, then 48 hours.

For the compound `CCC(CC)COC(=O)[C@H](C)N[P@](=O)(OC[C@H]1O[C@@](C#N)(c2ccc3c(N)ncnn23)[C@H](O)[C@@H]1O)Oc1ccccc1` [RDV, remdesivir], in the series with SARS-COV-2 (NTU13), the “Inhibition (%) to DMSO mean” value turned out to be 80%, the “Inhibition (%) to virus mean” value is given as 82% and the “Plaque number per well mean” value came to 32.
Turning to `C=C1C(=O)O[C@H]2/C=C(\C)CC3C=C(CC/C=C(\C)CC[C@H]12)C(=O)O3` (some centres unmarked) [AR100-DS1], the cell viability result with HepG2.2.15 cells and in the series with HuS-E/2 cells was “marked dose-dependent reduction in cell viability” each time. The “HBV DNA level in medium” value with HBV [1] (20 μg/ml AR100-DS1, 48 hours) is “significantly reduced”; in the series on HBV [1] (40 μg/ml AR100-DS1, 48 hours) it was “significantly reduced”. In addition, the “entry of HBV in HuS-E/2 cells” value in the series on HBV [2] (HuS-E/2 cells) is on record as “could not prevent HBV entering into HuS-E/2 cells”. For the same compound, the “HBV mRNA expression level” value with HBV [2] (setting [4]) was “neither secretion of HBsAg in the medium nor HBV mRNA expression level showed dose-dependent reduction”. In addition, the “secretion of HBsAg in the medium” value in the series with HBV [2] (setting [4]) is “neither secretion of HBsAg in the medium nor HBV mRNA expression level showed dose-dependent reduction”. Further, the “secretion of HBsAg” value in the series on HBV [3] (0, 20 and 40 μg/ml AR100-DS1, HepG2.2.15 cells (FIG. 1C)) is “significantly inhibited”. Besides, the “secretion of HBsAg reduced to” value in the series with HBV [3] (10 μg/ml AR100-DS1, 48 hours, HepG2.2.15 cells) is 75.25%; with HBV [3] (20 μg/ml AR100-DS1, 48 hours, HepG2.2.15 cells (FIGS. 1A and 1B)), 69.77% and 63.00%; in the series on HBV [3] (50 μg/ml AR100-DS1, 48 hours, HepG2.2.15 cells), 56.78%.
